Source: patent US20220315567A1 (priority 2016, published 2022)
pEC50: −log10 of the molar value. Structures can show the parent of a compound that is named as a salt. Where two headings read alike, the source gives them in different places.

What was measured:
[1] = target: T1, human OPRM1 (μ, MOR) (Homo sapiens, UniProt P35372); assay: cell-based; conditions: for Emax: OPRM1, read-out: cAMP Emax; for pEC50: PathHunter human OPRM1 Arrestin CHO-K1 cell line, read-out: cAMP EC50
T1 construct: host or cells: CHO-K1
T1 sequence (P35372 whole entry): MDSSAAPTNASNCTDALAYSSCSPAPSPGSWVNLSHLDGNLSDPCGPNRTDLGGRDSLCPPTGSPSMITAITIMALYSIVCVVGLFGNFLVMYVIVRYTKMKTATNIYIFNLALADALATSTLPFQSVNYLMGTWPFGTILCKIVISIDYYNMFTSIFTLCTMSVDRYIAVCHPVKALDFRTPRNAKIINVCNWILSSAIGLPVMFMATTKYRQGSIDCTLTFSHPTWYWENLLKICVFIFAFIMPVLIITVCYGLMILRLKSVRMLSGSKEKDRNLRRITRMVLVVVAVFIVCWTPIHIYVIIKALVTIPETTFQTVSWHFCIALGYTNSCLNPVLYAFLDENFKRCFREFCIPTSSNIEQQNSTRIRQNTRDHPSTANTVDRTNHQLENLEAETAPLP
Method: G-protein signaling was measured via second messenger cAMP modulation. Detection of cAMP modulation was accomplished in the PathHunter human OPRM1 (μ, MOR) Arrestin CHO-K1 cell line using the Dynamic2 cAMP Kit from Cisbio.

[2] = target: T1, human OPRM1 (μ, MOR); assay: cell-based; conditions: for Emax: OPRM1, read-out: β-Arrestin Emax; for pEC50: PathHunter human OPRM1 Arrestin CHO-K1 cell line, read-out: β-Arrestin EC50
Method: The Discoverx PathHunter® β-Arrestin assay is used to measure β-arrestin-2 activity. The technology is based on Enzyme Fragment Complementation (EFC) with β-galactosidase (β-Gal) as the reporter. […] EA is fused to Q-arrestin-2, and ED is fused to the C-terminus of the GPCR of interest. When a ligand binds and the GPCR is activated, Q-arrestin-2 is recruited to the receptor resulting in an ED/EA complementation, restoring f-Gal activity, which is measured using chemiluminescence. For this assay, the PathHunter human OPRM1 (μ, MOR) Arrestin CHO-K1 cell line was used.

[3] = target: T1, human OPRM1 (μ, MOR); type: cell-based; conditions: for ΔRA of compound: relative activity from EC50 and Emax of β-arrestin vs cAMP, lower RA = more G-protein biased
Method: In certain embodiments, the ability of a compound to activate G-protein or β-arrestin is not an on/off switch for a given pathway, but rather a continuous function. To capture this, each compound is measured for activity in cell assays that are linked to β-arrestin recruitment and G-protein signaling. By comparing the activity between these two measures (accounting for both EC50 and maximal response reached, Emax) a relative activity (RA) value is determined.
In the case of MOR it is desirable to have high activation of the G-protein pathway while reducing activation of β-arrestin. In the case of the formula above, this means a lower RA.

Row | SMILES | Emax [1] | pEC50 [1] | Emax [2] | pEC50 [2] | Bias Factor (ΔRA of compound relative to ΔRA of DAMGO) × 10 [3] | ΔRA of compound [3] | Bias Factor (ΔRA of compound relative to ΔRA of DAMGO) × 10 ([3]; hydrochloride) | ΔRA of compound ([3]; hydrochloride)
1 | COc1ccc(C(CNC(=O)N2Cc3ccc(F)cc3C2)N(C)C)cc1 (stereo not drawn) [Compound 16a, N-(2-(Dimethylamino)-2-(4-methoxyphenyl)ethyl)-5-fluoroisoindoline-2-carboxamide hydrochloride] | 91.9% | 7.59 | 12.2% | 6.02 | −9.60 | −2.44 |  | 
2 | CN(C)C(CNC(=O)N1Cc2ccc(F)cc2C1)c1ccc(F)cc1Cl (stereo not drawn) [Compound 17a, N-(2-(2-Chloro-4-fluorophenyl)-2-(dimethylamino)ethyl)-5-fluoroisoindoline-2-carboxamide hydrochloride] | 111% | 7.37 | 27% | 5.29 | −12.08 | −2.69 |  | 
3 | CN(C)C(CNC(=O)N1Cc2ccccc2C1)c1ccccc1 (stereo not drawn) [Compound 18a, N-(2-(Dimethylamino)-2-phenylethyl)isoindoline-2-carboxamide hydrochloride] | 100% | 7.64 | 6.91% | 6.14 |  |  | −11.84 | −2.66
4 | CN(C)C(CNC(=O)NC1CCc2ccccc2C1)c1ccccc1 (stereo not drawn) [Compound 19a, 1-(2-(Dimethylamino)-2-phenylethyl)-3-(1,2,3,4-tetrahydronaphthalen-2-yl)urea hydrochloride] | 86.1% | 7.49 | 2.34% | < 4.00 | <−14.83 | <−2.96 |  | 
5 | CN(C)C(CNC(=O)N1Cc2ccc(F)cc2C1)c1ccccc1 (stereo not drawn) [Compound 20a, N-(2-(Dimethylamino)-2-phenylethyl)-5-fluoroisoindoline-2-carboxamide hydrochloride] | 70.8% | 7.51 | 3.65% | < 4.00 | <−14.83 | <−2.96 |  | 
6 | CN(C)C(CNC(=O)N1Cc2ccc(O)cc2C1)c1ccsc1 (stereo not drawn) [Compound 22, N-(2-(Dimethylamino)-2-(thiophen-3-yl)ethyl)-5-hydroxyisoindoline-2-carboxamide hydrobromide] | 16.3% | 6.49 | < 1% | < 4.00 | <−14.83 | <−2.96 |  | 
7 | CN(C)C(CNC(=O)N1Cc2ccc(O)cc2C1)c1ccc(O)cc1 (stereo not drawn) [Compound 24, N-(2-(dimethylamino)-2-(4-hydroxyphenyl)ethyl)-5-hydroxyisoindoline-2-carboxamide hydrobromide] | < 10% | < 4.00 | < 1% | < 4.00 | <−14.83 | <−2.96 |  | 
8 | CN(C)[C@H](CCNC(=O)N1Cc2ccc(F)cc2C1)c1ccsc1 [Compound 30-R, (R)—N-(3-(Dimethylamino)-3-(thiophen-3-yl)propyl)-5-fluoroisoindoline-2-carboxamide] | 109% | 6.22 | 9.2% | 5.24 | −5.73 | −2.05 |  | 
9 | CN(C)[C@@H](CCNC(=O)N1Cc2ccc(F)cc2C1)c1ccsc1 [Compound 30-S, (S)—N-(3-(Dimethylamino)-3-(thiophen-3-yl)propyl)-5-fluoroisoindoline-2-carboxamide] | 96.1% | 6.16 | 9.9% | < 4.00 | <−14.83 | <−2.96 |  | 
10 | CNC(CNC(=O)N1Cc2ccc(F)cc2C1)c1ccsc1 (stereo not drawn) [Compound 35, 5-Fluoro-N-(2-(methylamino)-2-(thiophen-3-yl)ethyl)isoindoline-2-carboxamide] | 26.4% | 5.93 | < 1% | < 4.00 | <−14.83 | <−2.96 |  | 
11 | CNC(CNC(=O)N1Cc2ccccc2C1)c1ccccc1 (stereo not drawn) [Compound 38, N-(2-(methylamino)-2-phenylethyl)isoindoline-2-carboxamide] | 95.9% | 7.35 | 6.6% | 5.78 | −12.56 | −2.74 |  | 
12 | CN(C)C(CNC(=O)N(C)[C@H]1CCCc2ccccc21)c1ccsc1 (stereo partly drawn) [Compound 39] | 93.4% | 6.93 | 10.9% | 6.19 | −1.90 | −1.67 |  | 
13 | CN(C)C(CNC(=O)N1CC[C@H](c2ccccc2)C1)c1ccsc1 (stereo partly drawn) [Compound 40] | 53.5% | 6.82 | 3.3% | < 4.00 | <−14.83 | <−2.96 |  | 
